# Key:
# [1] = biological target: T1, PPARG (peroxisome proliferator-activated receptor gamma) (Homo sapiens, UniProt P37231); assay: ATG_PPARg_TRANS: Factorial reporter gene assay (HepG2); type: cell-based; settings: HepG2
# T1 construct: expressed in transfected cells; host or cells: HepG2
# T1 sequence (P37231 1-505): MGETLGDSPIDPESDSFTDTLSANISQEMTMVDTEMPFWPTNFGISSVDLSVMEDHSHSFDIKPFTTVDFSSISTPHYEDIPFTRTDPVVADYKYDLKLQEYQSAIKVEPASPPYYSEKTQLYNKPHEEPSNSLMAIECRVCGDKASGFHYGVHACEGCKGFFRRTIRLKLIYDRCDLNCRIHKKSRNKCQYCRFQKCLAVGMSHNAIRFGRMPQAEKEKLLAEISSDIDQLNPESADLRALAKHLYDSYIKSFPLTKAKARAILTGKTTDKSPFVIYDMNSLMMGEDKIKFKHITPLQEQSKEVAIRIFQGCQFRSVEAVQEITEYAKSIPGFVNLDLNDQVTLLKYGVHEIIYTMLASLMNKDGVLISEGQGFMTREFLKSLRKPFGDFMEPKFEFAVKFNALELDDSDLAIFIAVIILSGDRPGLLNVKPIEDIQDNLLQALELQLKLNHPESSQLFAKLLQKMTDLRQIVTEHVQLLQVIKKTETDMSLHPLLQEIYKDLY
# In short: (§1)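 Mammalian one-hybrid trans reporters (25 MRTUs) measured ERRg, FXR and PPARg; PXRE used cis reporters from a 48-site MRTU library. Both were run in HepG2. Dosing: seven concentrations, MTC as the highest, three-fold dilution series.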
# LXRa (NR1H3) = biological target: T2, LXRa (NR1H3) (Homo sapiens, UniProt Q13133); assay: ATG_LXRa_TRANS: Factorial reporter gene assay (HepG2); type: cell-based; settings: HepG2
# T2 construct: expressed in transfected cells; host or cells: HepG2
# T2 sequence (Q13133 1-447): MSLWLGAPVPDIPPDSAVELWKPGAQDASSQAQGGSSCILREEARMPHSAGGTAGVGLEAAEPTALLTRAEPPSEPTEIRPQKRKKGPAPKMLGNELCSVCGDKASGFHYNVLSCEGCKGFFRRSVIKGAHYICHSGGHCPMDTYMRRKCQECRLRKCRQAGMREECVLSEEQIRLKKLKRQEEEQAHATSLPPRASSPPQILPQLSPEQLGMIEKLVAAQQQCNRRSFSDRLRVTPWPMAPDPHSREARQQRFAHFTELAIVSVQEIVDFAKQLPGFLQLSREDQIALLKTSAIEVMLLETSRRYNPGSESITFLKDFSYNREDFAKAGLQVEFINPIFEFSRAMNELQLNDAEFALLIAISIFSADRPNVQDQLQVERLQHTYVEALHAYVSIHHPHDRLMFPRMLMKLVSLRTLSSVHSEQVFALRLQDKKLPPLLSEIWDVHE
# Method: (§2) A multiple reporter transcription unit (MRTU) library consisting of 48 transcription factor binding sites was transfected into the HepG2 human liver hepatoma cell line. In addition to the cis-acting reporter genes (CIS), a modification of the approach was used to generate a trans-system (TRANS) with a mammalian one-hybrid assay consisting of an additional 25 MRTU library reporting the activity of nuclear receptor super-family members. […] These assays were performed by Attagene Inc. (Morrisville NC) under contract to EPA.
# (§3) In addition to the cis-acting reporter genes (CIS), a modification of the approach was used to generate a trans-system (TRANS) with a mammalian one-hybrid assay consisting of an additional 25 MRTU library reporting the activity of nuclear receptor super-family members. […] Chemicals were then tested in the CIS and TRANS assays at seven concentrations starting at the MTC and followed by three-fold serial dilutions. These assays were performed by Attagene Inc. (Morrisville NC) under contract to EPA. Detailed description of the methods, data and analysis methods for this dataset will be presented in a separate publication.
# Rat Liver [2] = settings: rat, chronic study, ref ToxRefDB; cited from earlier work
# Rat Liver [3] = settings: rat, chronic study, ref ToxRefDB; cited from earlier work; remark: listed apart in the source
# PXR (NR1I2) [4] = biological target: T3, PXR (NR1I2) (Homo sapiens, UniProt O75469); assay: ATG_PXRE_CIS: Factorial reporter gene assay (HepG2); type: cell-based; parameters: endogenous in cells; host or cells: HepG2; settings: HepG2
# T3 sequence (O75469 1-434): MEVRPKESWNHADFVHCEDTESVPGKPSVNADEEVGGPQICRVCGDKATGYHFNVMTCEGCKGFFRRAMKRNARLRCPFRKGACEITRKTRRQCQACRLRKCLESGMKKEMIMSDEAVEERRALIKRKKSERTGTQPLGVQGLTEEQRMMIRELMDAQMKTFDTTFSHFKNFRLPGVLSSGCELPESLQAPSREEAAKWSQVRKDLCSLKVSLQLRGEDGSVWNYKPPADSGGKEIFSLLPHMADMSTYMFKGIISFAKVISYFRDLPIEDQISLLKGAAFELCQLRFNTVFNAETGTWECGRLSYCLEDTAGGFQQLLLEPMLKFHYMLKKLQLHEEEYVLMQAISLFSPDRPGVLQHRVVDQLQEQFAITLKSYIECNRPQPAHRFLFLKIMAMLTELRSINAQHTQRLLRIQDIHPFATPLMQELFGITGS
# In short: as §1
# CYP2B6 = assay: CLZD_CYP2B6: Change in expression of CYP2B6 (primary human hepatocytes); type: cell-based; settings: 24 hr
# In short: (§4)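 Read-out: mRNA change by multiplexed quantitative nuclease protection assay. Primary human hepatocytes; 5 concentrations, 0.004-40 µM; exposures 6, 24, 48 hr.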
# [5] = biological target: T4, ESR1 (estrogen receptor 1) (Homo sapiens, UniProt P03372); assay: ATG_ERE_CIS: Factorial reporter gene assay (HepG2); type: cell-based; settings: HepG2
# T4 construct: expressed in transfected cells; host or cells: HepG2
# Method: as §2, §3
# Mouse Liver [6] = settings: mouse, chronic study, ref ToxRefDB; cited from earlier work
# CYP3A4 = assay: CLZD_CYP3A4: Change in expression of CYP3A4 (primary human hepatocytes); type: cell-based; settings: 24 hr
# In short: as §4
# Rat Liver [7] = settings: rat, chronic study, ref ToxRefDB; cited from earlier work; remark: listed apart in the source
# PXR (NR1I2) [8] = biological target: T3, PXR (NR1I2); assay: NVS_NR_hPXR: Human PXR Fluormone PXR (SXR) green (cell-free HTS); type: binding
# In short: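 Responses were normalized to same-plate solvent controls as percent of neutral control. AC50 values came from Hill-equation fits of concentration-response curves.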
# Mouse Liver [9] = settings: mouse, chronic study, ref ToxRefDB; cited from earlier work; remark: listed apart in the source
# Mouse Liver [10] = settings: mouse, chronic study, ref ToxRefDB; cited from earlier work; remark: listed apart in the source
# PXR (NR1I2) [11] = biological target: T3, PXR (NR1I2); assay: ATG_PXR_TRANS: Factorial reporter gene assay (HepG2); type: cell-based; parameters: endogenous in cells; host or cells: HepG2; settings: HepG2
# In short: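 HepG2 cells transfected with multiplexed reporter libraries: cis-acting binding-site reporters (CIS) and a one-hybrid nuclear-receptor trans system (TRANS). Chemicals tested at seven concentrations, starting at the maximum tolerated concentration with three-fold serial dilutions.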
# AR (androgen receptor) = assay: NVS_NR_hAR: Human AR 3H-Methyltrienolone (cell-free HTS); type: binding
# Excerpt: These are a collection of biochemical assays measuring binding constants and enzyme inhibition values. Chemicals were initially screened at a single concentration in duplicate wells at a concentration of 10 [drawing 63] M for cytochrome P-450 assays and 25 [drawing 64] M for all others. […] These assays were run by Caliper Life Sciences (Hanover, MD) under contract to EPA. Short assay descriptions are available at: http://www.caliperls.com/products/contract-research/in-vitro/.
# Cell-free HTS Assays: A collection of biochemical assays measuring binding constants and enzyme inhibition values. […] These assays were run by Caliper Life Sciences (Hanover, MD) under contract to EPA. Short assay descriptions are available at http://www.caliperls.com/products/contract-research/in-vitro/. Values for all endpoints were imported into GeneData Screener (Basel, Switzerland) and normalised to solvent controls from the same plate as the tested compounds and expressed as percent of neutral control. Concentration-response curves were fit in GeneData Screener (Basel, Switzerland) Condeseo module using the Hill equation and AC50 values were determined. […] Detailed description of the methods, data and analysis methods for this dataset are described in a separate publication.
# T4 sequence (P03372 whole entry): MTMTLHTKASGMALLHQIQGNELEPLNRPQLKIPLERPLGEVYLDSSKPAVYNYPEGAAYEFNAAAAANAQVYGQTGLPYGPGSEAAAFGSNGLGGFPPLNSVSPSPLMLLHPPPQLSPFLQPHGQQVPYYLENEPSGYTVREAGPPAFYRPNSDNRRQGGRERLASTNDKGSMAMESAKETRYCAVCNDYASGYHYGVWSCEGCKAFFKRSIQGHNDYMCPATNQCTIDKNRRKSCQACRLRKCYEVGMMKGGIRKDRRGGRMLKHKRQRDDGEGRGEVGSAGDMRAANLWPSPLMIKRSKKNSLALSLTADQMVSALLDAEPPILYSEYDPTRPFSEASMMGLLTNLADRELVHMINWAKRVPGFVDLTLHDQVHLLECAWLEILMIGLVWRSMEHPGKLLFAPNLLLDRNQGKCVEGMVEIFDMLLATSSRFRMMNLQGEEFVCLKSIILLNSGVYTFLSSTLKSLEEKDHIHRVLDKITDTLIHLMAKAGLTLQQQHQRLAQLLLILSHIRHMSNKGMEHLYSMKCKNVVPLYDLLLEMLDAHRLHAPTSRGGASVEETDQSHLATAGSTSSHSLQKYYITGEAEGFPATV
Structure (SMILES),ATG_PPARg_TRANS [1],ATG_LXRa_TRANS (LXRa (NR1H3)),CHR_Rat_Liver_3_NeoplasticLesion (Rat Liver [2]),CHR_Rat_Liver_2_PreneoplasticLesion (Rat Liver [3]),ATG_PXRE_CIS (PXR (NR1I2) [4]),CLZD_CYP2B6_24 (CYP2B6),ATG_ERE_CIS [5],CHR_Mouse_Liver_1_AnyLesion (Mouse Liver [6]),CLZD_CYP3A4_24 (CYP3A4),CHR_Rat_Liver_1_AnyLesion (Rat Liver [7]),NVS_NR_hPXR (PXR (NR1I2) [8]),CHR_Mouse_Liver_3_NeoplasticLesion (Mouse Liver [9]),CHR_Mouse_Liver_2_PreneoplasticLesion (Mouse Liver [10]),ATG_PXR_TRANS (PXR (NR1I2) [11]),NVS_NR_hAR (AR (androgen receptor))
CN=C=S [row 205],4.215,4.495,–,–,–,–,–,–,–,–,–,–,–,–,–
Cc1cc(C)nc(NC(=O)NS(=O)(=O)c2ccccc2C(=O)OC2COC2)n1 [r232],–,–,0,6,4.337,4.534,4.319,6,4.535,6,–,–,–,–,–
CCCN(CCOc1c(Cl)cc(Cl)cc1Cl)C(=O)n1ccnc1 [r251],5.456,–,0,0,5.538,–,–,6,–,6,5.274,6,6,5.444,4.903
